The target in the experiment is T1, ΔF508-CFTR (Homo sapiens, UniProt P13569, DEL508-508).
T1 construct: expressed in transfected cells
Nature of the experiment: Membrane potential optical (FRET/VIPR) assay, identification of potentiator compounds. It counts as cell-based. Conditions: Table 3, assay not given; for % Activity: relative efficacy. In short, it runs like this: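 Double-addition potentiator screen: compound delivered in gluconate-substituted Cl^--free medium, membrane potential followed via CC2-DMPE/DiSBAC2(3) FRET on VIPR. Cells were ΔF508-CFTR-expressing NIH3T3 mouse fibroblasts, held 2 h at 37° C. then 24 h at 27° C. before assay.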

SMILES strings stand for the structures. Bounds are passed on as bounds.

As a reminder, the EC50 is the concentration that produces a half-maximal response.

T1 sequence (P13569 with tags, fused parts or gaps DEL508-508): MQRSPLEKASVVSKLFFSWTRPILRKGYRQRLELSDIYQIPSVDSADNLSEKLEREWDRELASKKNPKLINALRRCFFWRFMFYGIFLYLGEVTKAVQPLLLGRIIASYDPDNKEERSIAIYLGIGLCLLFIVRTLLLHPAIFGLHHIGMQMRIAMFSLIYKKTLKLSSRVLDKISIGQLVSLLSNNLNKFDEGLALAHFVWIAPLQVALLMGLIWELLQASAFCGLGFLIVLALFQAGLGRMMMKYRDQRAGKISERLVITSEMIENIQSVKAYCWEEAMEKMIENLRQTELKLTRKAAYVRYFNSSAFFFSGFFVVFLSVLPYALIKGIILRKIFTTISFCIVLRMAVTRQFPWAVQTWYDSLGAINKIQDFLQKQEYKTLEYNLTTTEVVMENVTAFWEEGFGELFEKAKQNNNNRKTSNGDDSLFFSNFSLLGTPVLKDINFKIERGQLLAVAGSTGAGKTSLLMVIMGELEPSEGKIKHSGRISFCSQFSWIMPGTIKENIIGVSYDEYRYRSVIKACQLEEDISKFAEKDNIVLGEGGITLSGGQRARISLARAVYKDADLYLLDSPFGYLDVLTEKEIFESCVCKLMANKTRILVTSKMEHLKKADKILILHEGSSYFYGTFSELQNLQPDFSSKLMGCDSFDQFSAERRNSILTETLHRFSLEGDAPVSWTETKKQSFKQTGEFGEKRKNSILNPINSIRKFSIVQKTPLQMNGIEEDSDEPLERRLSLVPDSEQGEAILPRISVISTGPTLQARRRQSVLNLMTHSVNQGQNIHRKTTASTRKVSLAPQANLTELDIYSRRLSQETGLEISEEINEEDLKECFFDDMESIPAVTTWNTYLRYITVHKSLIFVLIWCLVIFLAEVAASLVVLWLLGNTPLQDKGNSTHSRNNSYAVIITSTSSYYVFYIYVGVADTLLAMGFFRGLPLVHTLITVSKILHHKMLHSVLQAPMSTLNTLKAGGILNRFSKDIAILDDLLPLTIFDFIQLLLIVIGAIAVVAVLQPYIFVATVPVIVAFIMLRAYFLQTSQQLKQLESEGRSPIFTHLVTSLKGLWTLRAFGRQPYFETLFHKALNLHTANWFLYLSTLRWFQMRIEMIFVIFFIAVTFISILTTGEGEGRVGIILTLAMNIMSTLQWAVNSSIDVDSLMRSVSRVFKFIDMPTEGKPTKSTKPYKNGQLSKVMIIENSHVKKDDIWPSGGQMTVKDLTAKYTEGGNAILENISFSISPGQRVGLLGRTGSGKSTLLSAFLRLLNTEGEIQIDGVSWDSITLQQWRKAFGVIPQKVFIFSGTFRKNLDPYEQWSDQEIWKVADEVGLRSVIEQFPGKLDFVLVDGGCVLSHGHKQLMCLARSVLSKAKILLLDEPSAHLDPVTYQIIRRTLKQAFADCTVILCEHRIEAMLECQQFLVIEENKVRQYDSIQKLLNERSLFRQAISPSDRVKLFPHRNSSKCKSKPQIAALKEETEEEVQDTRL

With `O=C(Nc1cc2c(cc1O)CCCC2)c1c[nH]c2ccccc2c1=O` [Compound 56, 1,4-dihydro-N-(1,2,3,4-tetrahydro-6-hydroxynaphthalen-7-yl)-4-oxoquinoline-3-carboxamide], the EC50 was less than 10 µM and the “% Activity” value is listed as “++ (between 25% to 100%)”. For the molecule `O=C(Nc1cc(C(F)(F)F)ccc1C(F)(F)F)c1c[nH]c2ccccc2c1=O` [Compound 630, N-[2,5-bis(trifluoromethyl)phenyl]-4-oxo-1H-quinoline-3-carboxamide], the EC50 is less than 10 µM and the “% Activity” value is given as “++ (between 25% to 100%)”. Consider `O=C(Nc1cc2[nH]ccc2cc1C(=O)N1CCCCC1)c1c[nH]c2ccccc2c1=O` [Compound 148, 4-oxo-N-[5-(1-piperidylcarbonyl)-1H-indol-6-yl]-1H-quinoline-3-carboxamide], for which the half-maximal effective concentration (EC50) was less than 10 µM and the “% Activity” value is “++ (between 25% to 100%)”.

In the case of `CCOC(=O)Cc1c[nH]c2cc(NC(=O)c3c[nH]c4ccccc4c3=O)ccc12` [Compound 207, 2-[6-[(4-oxo-1H-quinolin-3-yl)carbonylamino]-1H-indol-3-yl]acetic acid ethyl ester], the EC50 is less than 10 µM and the “% Activity” value is “++ (between 25% to 100%)”. Turning to `COC(=O)NCC(C)(C)c1ccc(NC(=O)c2c[nH]c3ccccc3c2=O)cc1` [Compound 323, [2-Methyl-2-[4-[(4-oxo-1H-quinolin-3-yl)carbonylamino]phenyl]-propyl]aminoformic acid methyl ester], the EC50 is less than 10 µM and the “% Activity” value is recorded as “++ (between 25% to 100%)”. The like results for `CCCc1ccc(NC)cc1NC(=O)c1c[nH]c2ccccc2c1=O` [Compound 356, N-(5-methylamino-2-propyl-phenyl)-4-oxo-1H-quinoline-3-carboxamide] were, in that order, less than 10 µM and “++ (between 25% to 100%)”. Regarding `CCOc1ccc2[nH]cc(C(=O)Nc3cc4[nH]ccc4cc3C(C)(C)C)c(=O)c2c1` [Compound 681, 6-ethoxy-4-oxo-N-(5-tert-butyl-1H-indol-6-yl)-1H-quinoline-3-carboxamide], the EC50 was less than 10 µM and the “% Activity” value is “++ (between 25% to 100%)”.

On to `COC(=O)NC1CCCc2ccc(NC(=O)c3c[nH]c4ccccc4c3=O)cc21` (stereo not drawn) [Compound 159, [7-[(4-Oxo-1H-quinolin-3-yl)carbonylamino]tetralin-1-yl]aminoformic acid methyl ester], for which the EC50 is 10 to 25 µM and the “% Activity” value is listed as “++ (between 25% to 100%)”. The like results for `O=C(Nc1cccc(S(=O)(=O)N2CCCCC2)c1)c1c[nH]c2ccccc2c1=O` [Compound 442, 4-oxo-N-[3-(1-piperidylsulfonyl)phenyl]-1H-quinoline-3-carboxamide] were, in that order, 25 to 60 µM and “+ (<25%)”. Turning to `CCCc1ccc(NC(=O)c2c[nH]c3ccccc3c2=O)cc1` [Compound 226, 4-oxo-N-(4-propylphenyl)-1H-quinoline-3-carboxamide], the “% Activity” value is “++ (between 25% to 100%)”. Consider `Cc1cccc(Oc2ncccc2NC(=O)c2c[nH]c3ccccc3c2=O)c1C` [Compound 206, N-[2-(2,3-dimethylphenoxy)-3-pyridyl]-4-oxo-1H-quinoline-3-carboxamide], for which the EC50 was less than 10 µM and the “% Activity” value is “++ (between 25% to 100%)”.

As to `COc1ccc2c(=O)c(C(=O)Nc3cc(O)c(C(C)(C)C)cc3C(C)(C)C)c[nH]c2c1` [Compound 583, N-(5-hydroxy-2,4-ditert-butyl-phenyl)-7-methoxy-4-oxo-1H-quinoline-3-carboxamide], the EC50 was less than 10 µM and the “% Activity” value is given as “++ (between 25% to 100%)”. `CC(C)c1ccc(NC(=O)c2c[nH]c3cc(F)c(F)cc3c2=O)c(C(F)(F)F)c1` [Compound 589, 6,7-difluoro-N-[4-isopropyl-2-(trifluoromethyl)phenyl]-4-oxo-1H-quinoline-3-carboxamide]: the EC50 was less than 10 µM and the “% Activity” value is recorded as “++ (between 25% to 100%)”.

`CCCOC(=O)NCC(C)(C)c1ccc(NC(=O)c2c[nH]c3ccccc3c2=O)cc1` [Compound 416, [2-methyl-2-[4-[(4-oxo-1H-quinolin-3-yl)carbonylamino]phenyl]-propyl]aminoformic acid propyl ester]: the concentration for a half-maximal effect (EC50) was less than 10 µM and the “% Activity” value is “++ (between 25% to 100%)”. Take `CC(C)(C)c1cc(C(C)(C)C)c(NC(=O)c2c[nH]c3cccc(O)c3c2=O)cc1O` [Compound 464, 5-hydroxy-N-(5-hydroxy-2,4-ditert-butyl-phenyl)-4-oxo-1H-quinoline-3-carboxamide]: the 50% effective concentration (EC50) was less than 10 µM and the “% Activity” value was “++ (between 25% to 100%)”. The matching figures for `CCc1cc2cc[nH]c2cc1NC(=O)c1c[nH]c2cccc(O)c2c1=O` [Compound 591, N-(5-ethyl-1H-indol-6-yl)-5-hydroxy-4-oxo-1H-quinoline-3-carboxamide]: less than 10 µM and “++ (between 25% to 100%)”. Consider `CCCc1ccc(NC(=O)c2c[nH]c3ccccc3c2=O)cc1N(C)C` [Compound 462, N-(3-dimethylamino-4-propyl-phenyl)-4-oxo-1H-quinoline-3-carboxamide], for which the “% Activity” value is given as “++ (between 25% to 100%)”. As for `COc1cc(NC(=O)c2c[nH]c3ccccc3c2=O)ccc1C(C)(C)C` [Compound 2, N-(3-methoxy-4-tert-butyl-phenyl)-4-oxo-1H-quinoline-3-carboxamide], the concentration for a half-maximal effect (EC50) is less than 10 µM and the “% Activity” value is “++ (between 25% to 100%)”.

On to `O=C(Nc1ccccc1-c1cccc(F)c1)c1c[nH]c2ccccc2c1=O` [Compound 277, N-[2-(3-fluorophenyl)phenyl]-4-oxo-1H-quinoline-3-carboxamide], for which the “% Activity” value is reported as “+++ (>100%)”. As to `CN(C)CCS(=O)(=O)Nc1cc(NC(=O)c2c[nH]c3ccccc3c2=O)cc(C(F)(F)F)c1` [Compound 359, N-[3-(2-dimethylaminoethylsulfonylamino)-5-(trifluoromethyl)phenyl]-4-oxo-1H-quinoline-3-carboxamide], the EC50 lay within 10 to 25 µM and the “% Activity” value is reported as “++ (between 25% to 100%)”. The like results for `O=C(Nc1cccc(-c2cccs2)c1)c1c[nH]c2ccccc2c1=O` [Compound 549, 4-oxo-N-[3-(2-thienyl)phenyl]-1H-quinoline-3-carboxamide] were, in that order, less than 10 µM and “++ (between 25% to 100%)”. The like results for `CC(=O)N1CC2(CC2)c2ccc(NC(=O)c3c[nH]c4ccccc4c3=O)cc21` [Compound 175, 4-Oxo-1,4-dihydro-quinoline-3-carboxylic acid N-(1′-Acetyl-1′,2′-dihydrospiro[cyclopropane-1,3′-3H-indol]-6′-yl)-amide] were, in that order, 10 to 25 µM and “++ (between 25% to 100%)”. The like results for `O=C(Nc1ccccc1C(O)c1ccccc1)c1c[nH]c2ccccc2c1=O` (stereo not drawn) [Compound 228, N-[2-(hydroxy-phenyl-methyl)phenyl]-4-oxo-1H-quinoline-3-carboxamide] were, in that order, less than 10 µM and “++ (between 25% to 100%)”. Consider `CC(=O)c1ccccc1NC(=O)c1c[nH]c2ccccc2c1=O` [Compound 365, N-(2-acetylphenyl)-4-oxo-1H-quinoline-3-carboxamide], for which the EC50 was 10 to 25 µM and the “% Activity” value is listed as “++ (between 25% to 100%)”. The like results for `Cc1c[nH]c2cc(NC(=O)c3c[nH]c4ccccc4c3=O)ccc12` [Compound 113, N-(3-methyl-1H-indol-6-yl)-4-oxo-1H-quinoline-3-carboxamide] were, in that order, less than 10 µM and “++ (between 25% to 100%)”. For `Cc1ccc2c(=O)c(C(=O)Nc3cc4[nH]ccc4cc3C(C)(C)C)c[nH]c2c1` [Compound 704, 7-methyl-4-oxo-N-(5-tert-butyl-1H-indol-6-yl)-1H-quinoline-3-carboxamide], the EC50 was less than 10 µM and the “% Activity” value is given as “++ (between 25% to 100%)”. The like results for `O=C(Nc1ccc(S(=O)(=O)N2CCOCC2)cc1)c1c[nH]c2ccccc2c1=O` [Compound 276, N-(4-morpholinosulfonylphenyl)-4-oxo-1H-quinoline-3-carboxamide] were, in that order, 10 to 25 µM and “++ (between 25% to 100%)”. The like results for `CCc1cccc2c(=O)c(C(=O)Nc3ccc(C(C)C)cc3C(F)(F)F)c[nH]c12` [Compound 682, 8-ethyl-N-[4-isopropyl-2-(trifluoromethyl)phenyl]-4-oxo-1H-quinoline-3-carboxamide] were, in that order, less than 10 µM and “+ (<25%)”. In the case of `CN(c1ccc(F)cc1)S(=O)(=O)c1ccc2[nH]cc(C(=O)Nc3cc4[nH]ccc4cc3C(C)(C)C)c(=O)c2c1` [Compound 406, 6-[(4-fluorophenyl)-methyl-sulfamoyl]-4-oxo-N-(5-tert-butyl-1H-indol-6-yl)-1H-quinoline-3-carboxamide], the EC50 is less than 10 µM and the “% Activity” value is listed as “++ (between 25% to 100%)”. The matching figures for `CCc1cccc(C)c1NC(=O)c1c[nH]c2ccccc2c1=O` [Compound 180, N-(2-ethyl-6-methyl-phenyl)-4-oxo-1H-quinoline-3-carboxamide]: less than 10 µM and “++ (between 25% to 100%)”. The like results for `Cc1ccc2c(c1)c(=O)c(C(=O)Nc1ccccc1)cn2C` [Compound 394, 1,6-dimethyl-4-oxo-N-phenyl-1H-quinoline-3-carboxamide] were, in that order, 25 to 60 µM and “+ (<25%)”. The matching figures for `Cc1ccc(S(=O)(=O)Nc2ccccc2NC(=O)c2c[nH]c3ccccc3c2=O)cc1` [Compound 398, 4-oxo-N-[2-(p-tolylsulfonylamino)phenyl]-1H-quinoline-3-carboxamide]: 10 to 25 µM and “++ (between 25% to 100%)”. For `NS(=O)(=O)c1ccc(NC(=O)c2c[nH]c3ccccc3c2=O)cc1` [Compound 165, 4-oxo-N-(4-sulfamoylphenyl)-1H-quinoline-3-carboxamide], the EC50 lay in the range of 25 to 60 µM and the “% Activity” value is on record as “+ (<25%)”.

The values are drawn from patent US8614327B2 (Vertex Pharmaceuticals Incorporated, priority 2004, dated 2013).
